Source: patent US11945881B2, “Neoantigens expressed in ovarian cancer and their uses” (Janssen Biotech, Inc., priority 2020, dated 2024)

Assays:
CD4+ T cells = assay: exogenous autologous normal donor restimulation assay, TNFα/IFNγ double positive CD4+ T cells by flow cytometry; type: cell-based, human; conditions: donor independent, peptide pool 10 μg/mL, healthy donors; for Fold change (CD4+) vs. DMSO: maximum CD4+ T-cell response (TNFα and IFNγ); for Frequency (TNFα + IFNγ + CD4 T cells): maximum CD4+ T-cell response
Description: (§1) The immunogenicity of neoantigens was assessed using the exogenous autologous normal donor restimulation assay. […] The lyophilized peptides were solubilized in 100% DMSO.
(§2) CD1c+ Dendritic Cells (CD1c+DC) isolated from human healthy PBMCs were thawed using media (IMDM (Gibco) supplemented with glutamine, HEPES, 5% human serum (Sigma), and 1× Pen-Strep). DC cells were resuspended in media supplemented with IL-4 (Peprotech, 20 ng/mL) and GM-CSF (Gibco, 20 ng/mL), plated in 6 well microplates, and rested overnight at 37° C. and 5% CO2 incubator. The following day, DC cells were counted and plated in a 96 well round bottom microplate at a concentration of 30,000 viable cells per well. Lyophilized neoantigen peptide pools (15-mer peptides with 8-mer overlapping peptide sequences) were solubilized in 100% DMSO with a stock concentration of 20 mg/mL Neoantigen peptides pools were added to DCs for a final concentration of 10 μg/mL and rested for 2 hours at 37° C. and 5% CO2 incubator. CEF Peptide Pool “Plus” (Cellular Technologies, Ltd.) was utilized as a positive control (each viral peptide at a final concentration of 4 ug/ml) and DMSO at the same final concentration (0.05%) as the experimental peptides was utilized as a negative control. After 2 hours, DC cells were irradiated with 50 gray of ionizing radiation. Autologous CD3+ Pan-T cells isolated from human normal PBMCs were thawed using media. Following irradiation, autologous Pan-T cells were added to the irradiated DCs at 300,000 viable cells per well. Human IL-15 (Peprotech) was added to all wells at final concentration of 10 ng/ml. Plates were incubated at 37° C. and 5% CO2 incubator for a total of 12 days. Media was refreshed every 2-3 days with IL-15 (R&D System, 10 ng/mL final concentration) and IL-2 (R&D systems, 10 IU/mL final concentration).
(§3) On Day 11, cells were re-stimulated with identical experimental peptide pools or controls, at same concentration as peptide stimulation on Day 1. Protein Inhibitor Cocktail (eBioscience) was added to every well and plate was incubated overnight for 14-16 hours at 37° C. and 5% CO2 incubator. On Day 12, cells were stained for surface and intracellular flow cytometry analysis. The cells were washed with PBS and stained with Live/Dead Fixable Aqua Dead Cell stain (Thermo-Fisher). Following the live/dead stain, cells were blocked using Biotin-Fre Fc Receptor Blocker (Accurate Chemical & Scientific Corp). Extracellular cellular flow panel ([…] per well in 50 μL) consisted of CD3 PerCP-Cy5.5 (Biolegend), CD4 BV421 (Biolegend), and CD8 APC-Cy7 (Biolegend). After extracellular staining, cells were fixed and permeabilized using Foxp3/Transcription Factor Staining Buffer Set (eBioscience) and stained for intracellular proteins (1:50 dilution) using TNFα FITC (R&D Systems) and IFNγ BV785 (Biolegend). Cells were washed and resuspended in stain buffer, analyzed, and recorded in a BD Celesta flow cytometer.
(§4) Flow cytometry analysis was conducted on FlowJo v10.6 software. Cells were gated on live, singlet, CD3+, CD4+ and CD8+ T cells. The CD8+ and CD4+ T cells were analyzed for TNFα and IFNγ expression.
(§5) The immunogenicity of neoantigens was first investigated in 9-16 healthy donors.

CD8+ T cells = assay: exogenous autologous normal donor restimulation assay, TNFα/IFNγ double positive CD8+ T cells by flow cytometry; type: cell-based, human; conditions: for Fold change (CD8+) vs. DMSO: maximum CD8+ T-cell response (TNFα and IFNγ); for Fold change (CD8+) vs. DMSO / Frequency (TNFα + IFNγ + CD8 T cells): donor independent, peptide pool 10 μg/mL, healthy donors; for Frequency (TNFα + IFNγ + CD8 T cells): maximum CD8+ T-cell response; for Immunogenic (yes/no): positive if CD8+ and/or CD4+ double positive TNFα/IFNγ frequency >=3-fold over DMSO and at least 0.01%
Description: as §1, §2, §3, §4, §5

How did the “Fold change (CD4+) vs. DMSO” value (CD4+ T cells) turn out when “SMMEGVIQLSFKAIVCLLSCLDLLSLFRVVRHLS [AS94, neoantigen, alternative splicing of AFDN]” was run?
The value was 62.76 fold.

What about the “Frequency (TNFα + IFNγ + CD4 T cells)” value (CD4+ T cells) of the same sequence?
Its value is 0.098%.

And the “Fold change (CD8+) vs. DMSO” value (CD8+ T cells)?
The value was 1080.99 fold.

And the “Frequency (TNFα + IFNγ + CD8 T cells)” value (CD8+ T cells)?
Its value is 9.61%.

What about the “Immunogenic (yes/no)” value (CD8+ T cells) of the same sequence?
The value was “Yes”.

With “SRRLKLAQGRLRGLERLHSPQPFLQPMLPQGAQGPCKAPGQGQLLGGRREPDPS [AS14, neoantigen, alternative splicing of FOXH1]” as the sequence, how does the “Fold change (CD4+) vs. DMSO” value (CD4+ T cells) read?
The value was 59.26 fold.

What about the “Frequency (TNFα + IFNγ + CD4 T cells)” value (CD4+ T cells) of the same sequence?
The value was 0.12%.

And the “Fold change (CD8+) vs. DMSO” value (CD8+ T cells)?
Its value is 257.47 fold.

What about the “Frequency (TNFα + IFNγ + CD8 T cells)” value (CD8+ T cells) of the same sequence?
Its value is 5.6%.

What about the “Immunogenic (yes/no)” value (CD8+ T cells) of the same sequence?
The value was “Yes”.

Which “Fold change (CD4+) vs. DMSO” value (CD4+ T cells) does the source give for “STLNITLSFDSHHGHHPVSVI [FUS6, neoantigen, gene fusion PKHD1L1->EBAG9]” here?
Its value is 26.51 fold.

And the “Frequency (TNFα + IFNγ + CD4 T cells)” value (CD4+ T cells)?
Its value is 0.11%.

What about the “Fold change (CD8+) vs. DMSO” value (CD8+ T cells) of the same sequence?
Its value is 4.47 fold.

And the “Frequency (TNFα + IFNγ + CD8 T cells)” value (CD8+ T cells)?
The value was 0.096%.

What about the “Immunogenic (yes/no)” value (CD8+ T cells) of the same sequence?
Its value is “yes”.

How did the “Fold change (CD4+) vs. DMSO” value (CD4+ T cells) turn out when “TKKRKQSELQQP [AS95, neoantigen, alternative splicing of DMXL2]” was run?
Its value is 2.91 fold.

What about the “Frequency (TNFα + IFNγ + CD4 T cells)” value (CD4+ T cells) of the same sequence?
The value was 0.026%.

And the “Fold change (CD8+) vs. DMSO” value (CD8+ T cells)?
The value was 2.54 fold.

What about the “Frequency (TNFα + IFNγ + CD8 T cells)” value (CD8+ T cells) of the same sequence?
Its value is 0.03%.

What about the “Immunogenic (yes/no)” value (CD8+ T cells) of the same sequence?
Its value is “No”.

What does the source list for “TRSLDDLEKLDTLCCKLSVHVT [AS33, neoantigen, alternative splicing of RGS12]”?
Fold change (CD4+) vs. DMSO (CD4+ T cells): 32.24 fold; Frequency (TNFα + IFNγ + CD4 T cells) (CD4+ T cells): 0.28%; Fold change (CD8+) vs. DMSO (CD8+ T cells): 6958.6 fold; Frequency (TNFα + IFNγ + CD8 T cells) (CD8+ T cells): 43.7%; Immunogenic (yes/no) (CD8+ T cells): Yes

Which results are given for “VEDEEKKEAGTHFIHLTGTTVSAGVPEEMPATTLRREVF [AS91, neoantigen, alternative splicing of ACIN1]”?
Fold change (CD4+) vs. DMSO (CD4+ T cells): 36.02 fold; Frequency (TNFα + IFNγ + CD4 T cells) (CD4+ T cells): 0.23%; Fold change (CD8+) vs. DMSO (CD8+ T cells): 46.44 fold; Frequency (TNFα + IFNγ + CD8 T cells) (CD8+ T cells): 0.21%; Immunogenic (yes/no) (CD8+ T cells): Yes

“VEDEEKKEGSMLVAPTSPPSLEAGTHFIHLTGTTVSAGVPEEMPATTLRREVF [AS93, neoantigen, alternative splicing of ACIN1]” was tested. Which “Fold change (CD4+) vs. DMSO” value (CD4+ T cells) did it give?
Its value is 253.72 fold.

And the “Frequency (TNFα + IFNγ + CD4 T cells)” value (CD4+ T cells)?
The value was 1.62%.

What about the “Fold change (CD8+) vs. DMSO” value (CD8+ T cells) of the same sequence?
Its value is 459.18 fold.

And the “Frequency (TNFα + IFNγ + CD8 T cells)” value (CD8+ T cells)?
The value was 0.9%.

And the “Immunogenic (yes/no)” value (CD8+ T cells)?
Its value is “Yes”.

Which results are given for “VEDEEKKEPDGAQRHLVDIGGSHQTSHAEKFLFLLCPPVV [AS90, neoantigen, alternative splicing of ACIN1]”?
Fold change (CD4+) vs. DMSO (CD4+ T cells): 4.93 fold; Frequency (TNFα + IFNγ + CD4 T cells) (CD4+ T cells): 0.044%; Fold change (CD8+) vs. DMSO (CD8+ T cells): 28.95 fold; Frequency (TNFα + IFNγ + CD8 T cells) (CD8+ T cells): 0.1%; Immunogenic (yes/no) (CD8+ T cells): Yes

“VIPGDLSEAHGYSFS [AS5, neoantigen, alternative splicing of PLAG1]” was tested. Which “Fold change (CD4+) vs. DMSO” value (CD4+ T cells) did it give?
The value was 17.14 fold.

And the “Frequency (TNFα + IFNγ + CD4 T cells)” value (CD4+ T cells)?
Its value is 0.18%.

What about the “Fold change (CD8+) vs. DMSO” value (CD8+ T cells) of the same sequence?
The value was 2.41 fold.

What about the “Frequency (TNFα + IFNγ + CD8 T cells)” value (CD8+ T cells) of the same sequence?
The value was 0.017%.

What about the “Immunogenic (yes/no)” value (CD8+ T cells) of the same sequence?
The value was “Yes”.

How did the “Fold change (CD4+) vs. DMSO” value (CD4+ T cells) turn out when “VLRKTAHRSTTARCSCPPWLTCWPRVAAPGALSTVAREASWWLLTTEVV [AS74, neoantigen, alternative splicing of TRPM5]” was run?
Its value is 17.23 fold.

What about the “Frequency (TNFα + IFNγ + CD4 T cells)” value (CD4+ T cells) of the same sequence?
Its value is 0.064%.

What about the “Fold change (CD8+) vs. DMSO” value (CD8+ T cells) of the same sequence?
Its value is 1018.49 fold.

What about the “Frequency (TNFα + IFNγ + CD8 T cells)” value (CD8+ T cells) of the same sequence?
The value was 6.6%.

And the “Immunogenic (yes/no)” value (CD8+ T cells)?
Its value is “Yes”.

Which results are given for “VLTVTSTDQEYLDLSAP [AS44, neoantigen, alternative splicing of FGFR3]”?
Fold change (CD4+) vs. DMSO (CD4+ T cells): 13.45 fold; Frequency (TNFα + IFNγ + CD4 T cells) (CD4+ T cells): 0.067%; Fold change (CD8+) vs. DMSO (CD8+ T cells): 85.94 fold; Frequency (TNFα + IFNγ + CD8 T cells) (CD8+ T cells): 0.33%; Immunogenic (yes/no) (CD8+ T cells): Yes

Which results are given for “VQKLKNARSLNLEDQI [AS83, neoantigen, alternative splicing of NUF2]”?
Fold change (CD4+) vs. DMSO (CD4+ T cells): 71.14 fold; Frequency (TNFα + IFNγ + CD4 T cells) (CD4+ T cells): 0.061%; Fold change (CD8+) vs. DMSO (CD8+ T cells): 10.83 fold; Frequency (TNFα + IFNγ + CD8 T cells) (CD8+ T cells): 0.14%; Immunogenic (yes/no) (CD8+ T cells): Yes
